The values below come from paper PMC8222713, “Variation of Two S3b Residues in KV4.1–4.3 Channels Underlies Their Different Modulations by Spider Toxin κ-LhTx-1” (Frontiers in Pharmacology, 2021).

Structures are written as SMILES. Where a SMILES comes first, the peptide text is derived from it. Bridges are numbered along the chain shown (N, C = ends).

Experiment [1] has as its system KV3.1 channel (hKV3.1). Put plainly: Whole-cell patch clamp selectivity, KV3.1. The format is cell-based, human. Conditions: KV3.1, 10 µM, n = 5. How it is done: (§1) The cDNA of hKV1.1, hKV1.3, rKV1.4, hKV1.5, rKV2.1, hKV3.1–3.4, mKV4.1, rKV4.2, and rKV4.3 were subcloned in the eukaryotic expression vector pCDNA3.1 or pCMV-blank. Channel mutants were made by a site-directed mutation method. Briefly, a pair of oppositely directed primers with 15 bp overlap at their 5′ ends and the designed mutation site were used to amplify the parental channel plasmid, then the PCR mix was treated with DpnI to remove the template. 10 μL digestion mix was directly used to transform 100 μL DH5α chemical competent cells. The correct mutation made by this procedure was finally confirmed by DNA sequencing. […] 4–6 h after transfection, cells were seeded onto poly-lysine (PLL) coated coverslips, and 24–36 h later, transfected cells were ready for patch-clamp analysis. […]
(§2) Whole-cell patch clamp recording was performed in an electrophysiology platform equipped with MultiClamp 700B amplifier and Axon Digidata 1550 AD/DA convertor (Axon Instruments, Irvine, CA, United States). […] The whole cell conductance (G) at each depolarizing voltage (V) was determined using the equation: G = I/(V−Vrev), where I and Vrev represents the current amplitude and the reversal potential, respectively. In the present study, Vrev for K^+ current is determined to be −85.61 mV using the Nernst equation. […] Gating currents of KV4.1–4.3 channels were measured as previously reported ([Tilley et al., 2019]). […]

Experiment [2] has as its system KV1.3 channel (hKV1.3). Put plainly: Whole-cell patch clamp selectivity, KV1.3. Format: cell-based, human. Conditions: KV1.3, 10 µM, n = 5. The protocol: as §1, §2
Background: Patch clamp records ionic current or voltage across a cell membrane.

Experiment [3] concerns KV4.1/282TD (P282T/K283D double mutant). Kind of experiment: Whole-cell patch clamp, KV4.1/282TD in CHO-K1 cells. The format is cell-based, mouse. The protocol: The cDNA of hKV1.1, hKV1.3, rKV1.4, hKV1.5, rKV2.1, hKV3.1–3.4, mKV4.1, rKV4.2, and rKV4.3 were subcloned in the eukaryotic expression vector pCDNA3.1 or pCMV-blank. Channel mutants were made by a site-directed mutation method. Briefly, a pair of oppositely directed primers with 15 bp overlap at their 5′ ends and the designed mutation site were used to amplify the parental channel plasmid, then the PCR mix was treated with DpnI to remove the template. 10 μL digestion mix was directly used to transform 100 μL DH5α chemical competent cells. The correct mutation made by this procedure was finally confirmed by DNA sequencing. CHO-K1 cells (ATCC® CCL-61™) were grown in DMEM-F12 mixed medium (1:1) supplemented with 10% FBS and maintained in standard conditions (saturated humidity, 37°C, 5% CO2). Channel plasmid was co-transfected with pEGFP-N1 (encodes the green fluoresence protein) into CHO-K1 cells using lipofectamine 2000 following the manufacturer’s instructions. 4–6 h after transfection, cells were seeded onto poly-lysine (PLL) coated coverslips, and 24–36 h later, transfected cells were ready for patch-clamp analysis. It should be note that KV4.2 and its mutants were also co-expressed with hKChIP1 to promote their functional expressions.
Whole-cell patch clamp recording was performed in an electrophysiology platform equipped with MultiClamp 700B amplifier and Axon Digidata 1550 AD/DA convertor (Axon Instruments, Irvine, CA, United States). Data were acquired using the pClamp software (Axon Instruments, Irvine, CA, United States). All experiments were performed at room temperature. The bath solution contains (in mM): 140 NaCl, 5 KCl, 1 MgCl2, 2 CaCl2, 10 glucose, and 10 HEPES (pH = 7.3). The pipette solution contains (in mM): 140 KCl, 2.5 MgCl2, 11 EGTA, and 10 HEPES (pH = 7.3). Series resistance was kept below 10 MΩ and compensated to 80%. The concentration–response curves were fitted by a Hill logistic equation to estimate the potency (IC50) of the toxin. The whole cell conductance (G) at each depolarizing voltage (V) was determined using the equation: G = I/(V−Vrev), where I and Vrev represents the current amplitude and the reversal potential, respectively. In the present study, Vrev for K^+ current is determined to be −85.61 mV using the Nernst equation. G-V curve was obtained by plotting the normalized G as a function of V and fitted by the Boltzmann equation: y = 1/{1 + exp [(Va−V)/K]}, in which Va, V, and K represents half-maximum activation voltage, test voltage and slope factor, respectively. The steady-state fast inactivation of KV4 channels was measured using a classical two-pulses protocol: cell was held at −120 mV, and a train of conditional voltages (−120–40 mV, in 10 mV increment, 1,000 ms) were applied to induce channel inactivation, followed by a +60 mV test pulse (300 ms) to assess the proportion of non-inactivated channels; the sweep interval was set to 10 s. Currents at the test pulse (I) were normalized to the maximum value (Imax) and plotted as a function of the conditional voltage (V), the curve was fitted by the Boltzmann equation: I/Imax = A + (1−A)/{1 + exp [(V−Vh)/K]}, where Vh is the half-maximum inactivation voltage, A represents the minimum channel availability, and K is the slope factor. Gating currents of KV4.1–4.3 channels were measured as previously reported ([Tilley et al., 2019]). Briefly, the ionic pore currents were abolished by replacing K^+ with NMDG^+ in the pipette solution, and 10 µM Cs^+ was present in the bath solution to occupy the selectivity filter of KV channels to prevent decay of the gating currents during recording.
Data were presented as MEAN ± SEM, n represents the number of separate experimental cells. Data were analyzed using the software Clampfit 10.5 (Axon Instruments, Irvine, CA, United States), Graphpad Prism 5.01 (GraphPad Software, La Jolla, CA, United States) and Excel 2010 (Microsoft Corporation, Redmond, WA, United States). […]

Experiment [4] relates to KV3.4 channel (hKV3.4). Put plainly: Whole-cell patch clamp selectivity, KV3.4. The format is cell-based, human. Conditions: KV3.4, 10 µM, n = 5. The protocol: as §1, §2
Experiment [5] deals with KV3.2 channel (hKV3.2). Kind of experiment: Whole-cell patch clamp selectivity, KV3.2. The format is cell-based, human. The conditions noted are these: KV3.2, 10 µM, n = 5. The protocol:
as §1, §2

[6] abbreviates: 10 μM κ-LhTx-1, G-V, mean ± SEM, n = 5.
Where [7] appears, read: 10 μM κ-LhTx-1, two-pulse protocol, mean ± SEM, n = 5.

As to `CC[C@H](C)[C@@H]1NC(=O)[C@H](CCC(N)=O)NC(=O)[C@@H]2CSSC[C@@H]3NC(=O)[C@H](CC(C)C)NC(=O)[C@H](CC(N)=O)NC(=O)[C@H](CCSC)NC(=O)[C@H](Cc4c[nH]c5ccccc45)NC(=O)[C@H](CO)NC(=O)[C@H](C)NC(=O)[C@@H](NC(=O)[C@H](CCC(=O)O)NC(=O)[C@H](CCC(N)=O)NC(=O)[C@H](C)NC(=O)[C@H](CC(=O)O)NC(=O)[C@@H](N)CCC(=O)O)CSSC[C@H](NC(=O)[C@H](CSSC[C@@H](C(=O)N[C@@H](CCCCN)C(=O)N[C@@H](Cc4ccc(O)cc4)C(=O)N[C@@H](CCCCN)C(=O)N[C@@H](CC(C)C)C(N)=O)NC(=O)[C@H](Cc4c[nH]c5ccccc45)NC1=O)NC(=O)[C@H](CCCCN)NC(=O)[C@H](CCCCN)NC(=O)[C@H](CCC(=O)O)NC(=O)CNC3=O)C(=O)N[C@@H](CCC(=O)O)C(=O)NCC(=O)N[C@@H](Cc1ccc(O)cc1)C(=O)N[C@@H](C(C)C)C(=O)N2` [κ-LhTx-1] (H-EDAQECASWMNLCGEKKCCEGYVCQIWCKYKL-NH2; disulfide 6-19, 13-24, 18-28 (inferred); N-terminus and C-terminus assumed), the effect on currents result in experiment [1], in experiment [2], in experiment [4] and in experiment [5] was “did not remarkably affect the currents” each time. Also, the “Va (steady-state activation)” value in experiment [3] (setting [6]) is listed as 29.00 ± 0.52 mV. Further, the “k, slope factor (steady-state activation)” value in experiment [3] (setting [6]) is recorded as 25.50 ± 0.51 mV. Also, the “Vh (steady-state inactivation)” value in experiment [3] (setting [7]) is given as -56.22 ± 2.80 mV. Also, the “k, slope factor (steady-state inactivation)” value in experiment [3] (setting [7]) came to 5.95 ± 0.32 mV. In experiment [3] (10 μM, +100 mV), the “inhi%(min)” value is on record as “approaching zero”. Further, in experiment [3] (Va shift by 10 μM κ-LhTx-1 vs control, mean ± SEM), the “∆Va (steady-state activation)” value is 37.82 ± 2.83 mV. Also, the “∆Vh (steady-state inactivation)” value in experiment [3] (Vh shift by 10 μM κ-LhTx-1 vs control, mean ± SEM) worked out at 3.38 ± 3.15 mV.
